Target: T1, BRD4(1) (Homo sapiens, UniProt O60885)
T1 construct: first bromodomain
Assay: biochemical
Parameters: differential scanning fluorimetry, SYPRO Orange, shift of melting temperature of 2 uM bromodomain
Conditions: read-out: BRD4(1) ΔTm (°C)

| SMILES | ΔTm at 10 µM [°C] |
| --- | --- |
| Cc1cc(=O)n(C)c2cc(N3C(=O)CC[C@H](NC(=O)OC(C)(C)C)[C@H]3C)ccc12 (relative stereo) [compound 21, 21] | 0.33 |
| Cc1cc(=O)n(C)c2cc(N3C[C@@H](NC(=O)OC(C)(C)C)[C@H](C)CC3=O)ccc12 (relative stereo) [compound 22, 22] | 0.19 |

Reference: PMC4871321 (Angewandte Chemie (Weinheim an Der Bergstrasse, Germany), 2015)
